Results as given in patent US9872494B2, “Active ingredient combinations comprising pyridylethylbenzamides and other active ingredients” (priority 2010, dated 2018).

How the values were obtained:
Assay type in all cases: in vivo
[1] = system: green peach aphid (Myzus persicae); test: Myzus test (spray treatment), Chinese cabbage leaf disks; conditions: for Mortality in % after 1d: spray
From the text: (§1) If the actual insecticide mortality is greater than calculated, then the combination is superadditive in its kill—that is, there is a synergistic effect. In this case the mortality actually observed must be greater than the value for the expected mortality (E) calculated on the basis of the formula given above.
Myzus Test (Spray Treatment)
Solvent: 78 parts by weight of acetone
• 1.5 parts by weight of dimethylformamide Emulsifier: 0.5 part by weight of alkylaryl polyglycol ether
A suitable preparation of active ingredient is prepared by mixing one part by weight of active ingredient with the stated amounts of solvent and emulsifier and diluting the concentrate with emulsifier-containing water to the desired concentration. A suitable suspension of biological agent is prepared by dissolving the cells, spores or viruses in emulsifier-containing water in the desired concentration.
Chinese cabbage (Brassica pekinensis) leaf disks infested by all stages of the green peach aphid (Myzus persicae) are sprayed with an active ingredient and/or biological agent preparation in the desired concentration.
After the desired time, the effect in % is ascertained. Here, 100% means that all of the aphids have been killed; 0% means that no aphids have been killed. The mortality figures determined are used for calculation according to the Colby formula (see sheet 1).

[2] = system: cotton (Gossypium hirsutum); test: Seed treatment - cotton emergence test; conditions: after 2 days
From the text: Seed Treatment—Cotton Emergence Test
Seed of cotton (Gossypium hirsutum) is mixed with the desired amount of active ingredient and spores and also water. After drying, 25 seed grains in each case are sown in pots filled with sandy loam.
After 2 days, the effect in % is ascertained on the basis of the cotton plants that have emerged.

soya beans (Glycine max) = test: Glycine max - growth promotion in combination with Mycorrhiza; conditions: 44 days greenhouse, fresh roots
Description: Glycine max—Growth Promotion in Combination with Mycorrhiza
Seed of soya beans (Glycine max) is mixed with the desired amount of active ingredient in water. After drying, the seeds are sown in pots filled with sand and perlite (1:1). For inoculation with arbuscular mycorrhiza fungi, the sand-perlite mixture is mixed beforehand with the Mycorrhiza inoculum (AMykor GmbH; Germany) in a concentration of 25 ml/L. The seed is covered with 3 cm of Lecaton (expanded clay).
Over the following 44 days, the plants are cultivated in a greenhouse in good growth conditions. The pots are watered with a nutrient solution (Hoagland and Amon, 1950, half-concentrated solution) with a low phosphate concentration (20 μM).
The untreated control plants are cultured without arbuscular mycorrhiza fungi, but under the same conditions.
The growth-promoting effect on shoot and roots is ascertained via the weight of the fresh roots of the treated plant in comparison to the untreated control.

Meloidogyne incognita = Meloidogyne incognita test (gall formation on lettuce roots)
From the text: (§2) The anticipated effect of a given combination of two active ingredients may be calculated (cf. Colby, S. R., “Calculating Synergistic and Antagonistic Responses of Herbicide Combinations”, Weeds 15, pages 20-22, 1967) as follows: • if • X is the mortality, expressed in % of the untreated control, when active ingredient A is used in an application rate of m ppm, or m g/ha • Y is the mortality, expressed in % of the untreated control, when active ingredient B is used in an application rate of n ppm, or n g/ha • E is the mortality, expressed in % of the untreated control, when active ingredients A and B are used at application rates of m and n ppm or of m and n g/ha, • then
as §1
Meloidogyne incognita Test
Solvent: 125.0 parts by weight of acetone
A suitable preparation of active ingredient is prepared by mixing one part by weight of active ingredient with the stated amounts of solvent and diluting the concentrate with water to the desired concentration. […]
After the desired time, the nematicidal effect is determined on the basis of gall formation in %. […]

[3] = system: army worm (Spodoptera frugiperda); test: Spodoptera frugiperda test (spray treatment), maize leaf disks; conditions: foliar, 48 h, read-out: Mortality in % after 2d
From the text: as §2, §1
Spodoptera frugiperda Test (Spray Treatment)
Solvent: 78.0 parts by weight of acetone
• 1.5 parts by weight of dimethylformamide Emulsifier: 0.5 part by weight of alkylaryl polyglycol ether […]
After the desired time, the effect in % is ascertained. […] The mortality figures determined are used for calculation according to the Colby formula (see sheet 1).

[4] = 1000 g ai/ha, 100% = all aphids killed
[5] = Myzus persicae, foliar, 24 h, read-out: Mortality in % after 1d

Q: Which “Mortality in % after 1d” value ([1]; 2000 g ai/ha) does the source give for “Bacillus amyloliquefaciens strain FZB 42” here?
A: 0%

Q: And the “Emergence in % in comparison to untreated control” value (shortened to “Emergence in % in comparison”) ([2]; 0.075 g ai/kg seed)?
A: 158%

Q: And the “Emergence in % in comparison” value ([2]; 0.15 g ai/kg seed)?
A: 163%

Q: For arbuscular mycorrhiza fungus, which “Root weight in % in comparison to untreated control” value (soya beans (Glycine max); Mycorrhiza inoculum 25 ml/L in sand-perlite) is on record?
A: 133.21%

Q: For Paecilomyces lilacinus strain 251, which “Mortality in % after 1d” value ([1]; 5000 g ai/ha) is on record?
A: 0%

Q: “Bacillus subtilis strain GB03 [Bacillus subtilis strain GB 03]” was tested. Which “Emergence in % in comparison” value ([2]; 0.078 g ai/kg seed) did it give?
A: 158%

Q: With “Bacillus thuringiensis subsp. tenebrionis” as the compound, how does the “Mortality in % after 1d” value [1, 4] read?
A: 0%

Q: With Metschnikowia fructicola as the compound, how does the “Mortality in % after 1d” value [1, 4] read?
A: 0%

Q: Which “Mortality in % after 1d” value ([1]; 2000 g ai/ha) does the source give for O=S(=O)(CCC(F)=C(F)F)c1ncc(Cl)s1 [Fluensulfone, fluensulfone, reference compound] here?
A: 0%

Q: Which results are given for O=C(NCCc1ncc(C(F)(F)F)cc1Cl)c1ccccc1C(F)(F)F [Fluopyram, N-{2-[3-chloro-5-(trifluoromethyl)-2-pyridinyl]ethyl}-2-trifluoromethylbenzamide, reference compound]?
A: Root weight in % in comparison to untreated control (soya beans (Glycine max); 0.1 mg/seed grain, seed treatment): 116.90%; mortality at 500 g/ha [1, 5]: 0%; mortality at 1000 g/ha [1, 5]: 0%; mortality at 0.0005 ppm (Meloidogyne incognita; Meloidogyne incognita, 504 h, read-out: Mortality in % after 21d): 0%; Emergence in % in comparison to untreated control ([2]; 0.5 g ai/kg seed): 100%; Emergence in % in comparison to untreated control ([2]; 1 g ai/kg seed, untreated = 100): 133%; mortality at 1000 g/ha [3]: 0%

Q: How did the “Mortality in % after 21d” value (Meloidogyne incognita; 5 ppm, nematicidal effect from gall formation) turn out when Metarhizium anisopliae strain F52 was run?
A: 0%

Q: With Cydia pomonella granulosis virus (CpGV) as the compound, how does the “Mortality in % after 1d” value [1, 4] read?
A: 0%

Q: Which mortality at 100 g/ha [1, 5] does the source give for C/C=C(\C)C(=O)O[C@H]1C[C@@H](OC(C)=O)[C@@]2(C(=O)OC)CO[C@H]3[C@@H](O)[C@@](C)([C@]45O[C@@]4(C)[C@H]4C[C@@H]5O[C@@H]5OC=C[C@@]54O)[C@H]4[C@]1(CO[C@]4(O)C(=O)OC)[C@@H]32 [Azadirachtin, azadirachtin, reference compound] here?
A: 0%
